# From patent publication US10793514B2, “Glutamine transport inhibitors and methods for treating cancer” (Vanderbilt University, priority 2016, dated 2020)
# Tests used:
# [1] = system: human CRC cell lines; assay: Follow-up viability screening (MultiTox Glo, sulforhodamine B); format: cell-based
# Procedure: Viability was evaluated using a commercially available chemiluminescent reagents (CellTiter-Glo, Promega Corp. G7572; MultiTox Glo, Promega Corp. G9270) in 96-well plate format according to the manufacturers protocol. […] Subsequently, CellTiter-Glo reagent was added and the plates were read using a plate reader (BioTek Synergy 4) with standard settings. Each set of conditions was replicated at least three times, technically and biologically. Error is reported as standard deviation (SD). The sulforhodamine B assay was run analogously to the above assays as previously described^19.
# [2] = system: HT29 cells; assay: Glutathione and reactive oxygen species in HT29 cells; format: cell-based, human; details: 48 h
# Procedure: Glutathione levels were measured using a commercially available kit (Cayman Chemical 703002) according to the manufacturers protocol. Concurrently ROS was measured in cells using CM-H2DCFDA (Life Technologies C6827) coupled with flow cytometry in accordance with the manufacturers protocol. The assay was replicated replicated at least three times, technically and biologically. Significance was calculated using a t-test in Graphpad Prism. Error is reported as standard deviation (SD).
# [3] = system: HCC1806 cells; assay: LC3B immunofluorescence; format: cell-based, human; details: 25 μM, 48 hrs
# Procedure: Following treatment, cells were fixed with 70% methanol for 5-10 min. LC3B was visualized with 1:100 primary antibody (anti LC3B, Cell signaling 2775) at 37° C. for 45 min followed by application of 1:600 secondary antibody (Rhodamine Red, Invitrogen R6394) at 37° C. for 30 min and DAPI for 4 min. Images were acquired with a fluorescence microscope at visualized at 40× magnification.
# [4] = system: HCC1806 and HT29 cells; assay: Autophagic flux (CYTO-ID); format: cell-based, human
# Procedure: Autophagic flux was measure using the CYTO-ID autophagy detection kit (Enzo Life Sciences ENZ-51031). HCC1806 and HT29 cells were seeded in 96 well plates the day before the experiment. […] Following treatment, cells were gently washed with assay buffer followed by addition of the dual color detection solution and incubation at 37° C. for 30 min. The plate was analyzed on a fluorescence microplane reader (BioTek Synergy 4).
# [5] = system: human CRC organoids A-007 and A-008; assay: Human CRC organoid viability assay; format: cell-based; details: V-9302 25 μM or CB-839 35 μM, 96 h
# Procedure: Human CRC-derived organoids were prepared as reported method with modification^41. Briefly, specimens from freshly resected tumors were minced and digested with 2 mg/ml type 2 collagenase (Worthington, N.J., USA). Samples were passed through 40 µm filters (Greiner Bio One, NC, USA) and epithelial cells trapped on the filters were embed in Matrigel (Corning, MA, USA) and cultured with advanced DMEM/F12 supplemented with N2 and B27 supplements (Thermo Fischer, MA, USA), 50 ng/ml rhEGF (R&D systems, MN, USA) and 1% antibiotic-antimycotic (Corning). For viability assay, organoids were dissociated by TrypLE express (Thermo Fischer) and suspended in Matrigel. […] After 4 days of culture, images of the organoids in Matrigel were captured and the number of viable cells were quantified with CellTiter Aqueous One Cell Proliferation Assay kit (Promega, WI, USA) and a Synergy 4 plate reader (BioTek, VT, USA). The assay was replicated at least three times, technically and biologically. Significance was calculated using a t-test in Graphpad Prism. Error is reported as standard deviation (SD).
# [6] = system: HT29 xenografts; assay: Global metabolomic analysis of HT29 xenografts; format: in vivo, mouse; details: 21 consecutive days
# Procedure: Metabolomic data acquisition was outsourced to Metabolon, Inc. Samples were prepared using the automated MicroLab STAR® system from Hamilton Company. To remove protein, dissociate small molecules bound to protein or trapped in the precipitated protein matrix, and to recover chemically diverse metabolites, proteins were precipitated with methanol under vigorous shaking for 2 min (Glen Mills GenoGrinder 2000) followed by centrifugation. The resulting extract was divided into five fractions: two for analysis by two separate reverse phase (RP)/UPLC-MS/MS methods with positive ion mode electrospray ionization (ESI), one for analysis by RP/UPLC-MS/MS with negative ion mode ESI, one for analysis by HILIC/UPLC-MS/MS with negative ion mode ESI, and one sample was reserved for backup. Samples were placed briefly on a TurboVap® (Zymark) to remove the organic solvent. All methods utilized a Waters ACQUITY ultra-performance liquid chromatography (UPLC) and a Thermo Scientific Q-Exactive high resolution/accurate mass spectrometer interfaced with a heated electrospray ionization (HESI-II) source and Orbitrap mass analyzer operated at 35,000 mass resolution. The sample extract was dried then reconstituted in solvents compatible to each of the four methods. Each reconstitution solvent contained a series of standards at fixed concentrations to ensure injection and chromatographic consistency. One aliquot was analyzed using acidic positive ion conditions, chromatographically optimized for more hydrophilic compounds. […] Another aliquot was also analyzed using acidic positive ion conditions, however it was chromatographically optimized for more hydrophobic compounds. […] Another aliquot was analyzed using basic negative ion optimized conditions using a separate dedicated C18 column. […] The fourth aliquot was analyzed via negative ionization following elution from a HILIC column (Waters UPLC BEH Amide 2.1×150 mm, 1.7 μm) using a gradient consisting of water and acetonitrile with 10 mM Ammonium Formate, pH 10.8. […] Peaks were quantified using area-under-the-curve. […]
smiles,measurement,setting,value
Cc1cccc(COc2ccccc2CN(CCC(N)C(=O)O)Cc2ccccc2OCc2cccc(C)c2)c1 (stereo not shown) [Compound V-9302],cellular viability and cell death,"[1]; 25 μM, 48 h, three independent assays lacking ATP-dependency",reduced cellular viability and increased cell death
same,EC50,"[1]; four human CRC cell lines, 48 hrs, MultiTox Glo, read-out: EC50, cellular viability",9 to 15 µM
same,GSSG levels and ROS,[2],elevated GSSG levels and ROS
same,"LC3B, marker of autophagy",[3],elevated LC3B
same,number of autophagic vesicles,"[4]; HT29 cells, combined with chloroquine (10 μM)",further increased the number of autophagic vesicles
same,autophagic flux,[4]; single agent,elevated with V-9302 exposure in a concentration-dependent manner
same,organoid viability,[5],significantly reduced
same,creatine-phosphate levels in treated tumors,[6],significantly reduced
same,oxidized glutathione (GSSG) and 4-hydroxy-nonenal-glutathione in tumors,[6],significantly elevated
same,reduction of N-acetylserine in treated tumors,[6],greater than 4 fold
